According to PubChem BioAssay AID1845201 (Molecular Pharmacology Branch, DTP, NCI, 2023):

System: COR L88 complex tumor spheroid viability
Assay: Anticancer human tumor COR L88 cell line growth inhibition;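 also: compound exposure lasted 7 days before viability readout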;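 as to viability, T/C: percent of DMSO vehicle-treated spheroids = 100%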
Settings: for IC50: curve of first compound; for viability, T/C: stronger effect = lower value
How it was run: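 Single agents and combinations were tested on spheroids built from tumor cells plus HUVEC and hMSC, at half-log dilutions starting at or near clinical Cmax, else 10 microM; final DMSO 0.25% (v/v).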

Q: For `Cc1sc2c(c1C)C(c1ccc(Cl)cc1)=NC(CC(=O)Nc1ccc(O)cc1)c1nnc(C)n1-2` (stereo not given) + Cn1nnc2c(C(N)=O)ncn2c1=O, which IC50 (second compound 1 µM) is on record?
A: 499 nM

Q: What about the IC50 (second compound 3.16 µM) of the same molecule?
A: 624 nM

Q: What about the IC50 (second compound 10 µM) of the same molecule?
A: 610 nM

Q: What about the IC50 (second compound 31.6 µM) of the same molecule?
A: 785 nM

Q: What about the IC50 (second compound 100 µM) of the same molecule?
A: 880 nM

Q: What about the viability, T/C (second compound 1 µM, first compound 0.00949 µM) of the same molecule?
A: 86.5%

Q: And the viability, T/C (second compound 1 µM, first compound 0.03 µM)?
A: 94%

Q: And the viability, T/C (second compound 1 µM, first compound 0.0949 µM)?
A: 97.9%

Q: What about the viability, T/C (second compound 1 µM, first compound 0.3 µM) of the same molecule?
A: 63.2%

Q: And the viability, T/C (second compound 1 µM, first compound 0.949 µM)?
A: 34.8%

Q: What about the viability, T/C (second compound 1 µM, first compound 3 µM) of the same molecule?
A: 22.4%

Q: And the viability, T/C (second compound 3.16 µM, first compound 0.00949 µM)?
A: 98.8%

Q: What about the viability, T/C (second compound 3.16 µM, first compound 0.03 µM) of the same molecule?
A: 96.5%

Q: What about the viability, T/C (second compound 3.16 µM, first compound 0.0949 µM) of the same molecule?
A: 100%

Q: What about the viability, T/C (second compound 3.16 µM, first compound 0.3 µM) of the same molecule?
A: 70.6%

Q: And the viability, T/C (second compound 3.16 µM, first compound 0.949 µM)?
A: 38.6%

Q: What about the viability, T/C (second compound 3.16 µM, first compound 3 µM) of the same molecule?
A: 21.5%

Q: And the viability, T/C (second compound 10 µM, first compound 0.00949 µM)?
A: 88.1%

Q: What about the viability, T/C (second compound 10 µM, first compound 0.03 µM) of the same molecule?
A: 94.1%

Q: And the viability, T/C (second compound 10 µM, first compound 0.0949 µM)?
A: 103%

Q: What about the viability, T/C (second compound 10 µM, first compound 0.3 µM) of the same molecule?
A: 64.7%

Q: What about the viability, T/C (second compound 10 µM, first compound 0.949 µM) of the same molecule?
A: 41.2%

Q: What about the viability, T/C (second compound 10 µM, first compound 3 µM) of the same molecule?
A: 18.8%

Q: And the viability, T/C (second compound 31.6 µM, first compound 0.00949 µM)?
A: 89%

Q: And the viability, T/C (second compound 31.6 µM, first compound 0.03 µM)?
A: 101%

Q: What about the viability, T/C (second compound 31.6 µM, first compound 0.0949 µM) of the same molecule?
A: 104%

Q: What about the viability, T/C (second compound 31.6 µM, first compound 0.3 µM) of the same molecule?
A: 87.7%

Q: And the viability, T/C (second compound 31.6 µM, first compound 0.949 µM)?
A: 42.7%

Q: And the viability, T/C (second compound 31.6 µM, first compound 3 µM)?
A: 23.8%

Q: What about the viability, T/C (second compound 100 µM, first compound 0.00949 µM) of the same molecule?
A: 78.4%

Q: What about the viability, T/C (second compound 100 µM, first compound 0.03 µM) of the same molecule?
A: 85.4%

Q: And the viability, T/C (second compound 100 µM, first compound 0.0949 µM)?
A: 92.2%

Q: And the viability, T/C (second compound 100 µM, first compound 0.3 µM)?
A: 88.1%

Q: And the viability, T/C (second compound 100 µM, first compound 0.949 µM)?
A: 47.4%

Q: What about the viability, T/C (second compound 100 µM, first compound 3 µM) of the same molecule?
A: 28.2%

Q: What does the source list for `CC1COCCN1c1cc(-c2ccnn2C)c2ccnc(-c3ccn[nH]3)c2n1` (stereo not given) + CC[C@@]1(O)C(=O)OCc2c1cc1n(c2=O)Cc2cc3c(CN(C)C)c(O)ccc3nc2-1?
A: IC50 (second compound 0.003 µM): 150 nM; IC50 (second compound 0.00949 µM): < 31.6 nM; IC50 (second compound 0.03 µM): < 31.6 nM; IC50 (second compound 0.0949 µM): < 31.6 nM; IC50 (second compound 0.3 µM): < 31.6 nM; viability, T/C (second compound 0.003 µM, first compound 0.0316 µM): 72.1%; viability, T/C (second compound 0.003 µM, first compound 0.1 µM): 53.5%; viability, T/C (second compound 0.003 µM, first compound 0.316 µM): 41.7%; viability, T/C (second compound 0.003 µM, first compound 1 µM): 25.8%; viability, T/C (second compound 0.003 µM, first compound 3.16 µM): 16.1%; viability, T/C (second compound 0.003 µM, first compound 10 µM): 4.41%; viability, T/C (second compound 0.00949 µM, first compound 0.0316 µM): 37.8%; viability, T/C (second compound 0.00949 µM, first compound 0.1 µM): 35.5%; viability, T/C (second compound 0.00949 µM, first compound 0.316 µM): 27.7%; viability, T/C (second compound 0.00949 µM, first compound 1 µM): 17.1%; viability, T/C (second compound 0.00949 µM, first compound 3.16 µM): 7.44%; viability, T/C (second compound 0.00949 µM, first compound 10 µM): 3.34%; viability, T/C (second compound 0.03 µM, first compound 0.0316 µM): 26.1%; viability, T/C (second compound 0.03 µM, first compound 0.1 µM): 23%; viability, T/C (second compound 0.03 µM, first compound 0.316 µM): 16.6%; viability, T/C (second compound 0.03 µM, first compound 1 µM): 10.1%; viability, T/C (second compound 0.03 µM, first compound 3.16 µM): 5.31%; viability, T/C (second compound 0.03 µM, first compound 10 µM): 2.97%; viability, T/C (second compound 0.0949 µM, first compound 0.0316 µM): 15.2%; viability, T/C (second compound 0.0949 µM, first compound 0.1 µM): 12.2%; viability, T/C (second compound 0.0949 µM, first compound 0.316 µM): 8.67%; viability, T/C (second compound 0.0949 µM, first compound 1 µM): 5.76%; viability, T/C (second compound 0.0949 µM, first compound 3.16 µM): 2.87%; viability, T/C (second compound 0.0949 µM, first compound 10 µM): 1.98%; viability, T/C (second compound 0.3 µM, first compound 0.0316 µM): 6.79%; viability, T/C (second compound 0.3 µM, first compound 0.1 µM): 6.02%; viability, T/C (second compound 0.3 µM, first compound 0.316 µM): 5.21%; viability, T/C (second compound 0.3 µM, first compound 1 µM): 3.2%; viability, T/C (second compound 0.3 µM, first compound 3.16 µM): 1.82%; viability, T/C (second compound 0.3 µM, first compound 10 µM): 1.1%

Q: With `CC(C)n1c(=O)n(C)c2cnc3cc(F)c(-c4ccc(OCCCN5CCCCC5)nc4)cc3c21` + Cn1nnc2c(C(N)=O)ncn2c1=O as the molecule, how does the IC50 (second compound 1 µM) read?
A: > 10000 nM

Q: What about the IC50 (second compound 3.16 µM) of the same molecule?
A: > 10000 nM

Q: What about the IC50 (second compound 10 µM) of the same molecule?
A: > 10000 nM

Q: And the IC50 (second compound 31.6 µM)?
A: 6870 nM

Q: What about the IC50 (second compound 100 µM) of the same molecule?
A: 5060 nM

Q: What about the viability, T/C (second compound 1 µM, first compound 0.0316 µM) of the same molecule?
A: 104%

Q: And the viability, T/C (second compound 1 µM, first compound 0.1 µM)?
A: 97.7%

Q: What about the viability, T/C (second compound 1 µM, first compound 0.316 µM) of the same molecule?
A: 98.9%

Q: What about the viability, T/C (second compound 1 µM, first compound 1 µM) of the same molecule?
A: 94.5%

Q: What about the viability, T/C (second compound 1 µM, first compound 3.16 µM) of the same molecule?
A: 80.7%

Q: And the viability, T/C (second compound 1 µM, first compound 10 µM)?
A: 52.8%

Q: And the viability, T/C (second compound 3.16 µM, first compound 0.0316 µM)?
A: 96.2%

Q: And the viability, T/C (second compound 3.16 µM, first compound 0.1 µM)?
A: 105%

Q: What about the viability, T/C (second compound 3.16 µM, first compound 0.316 µM) of the same molecule?
A: 98.2%

Q: And the viability, T/C (second compound 3.16 µM, first compound 1 µM)?
A: 95.4%

Q: And the viability, T/C (second compound 3.16 µM, first compound 3.16 µM)?
A: 80%

Q: What about the viability, T/C (second compound 3.16 µM, first compound 10 µM) of the same molecule?
A: 54.6%

Q: And the viability, T/C (second compound 10 µM, first compound 0.0316 µM)?
A: 96.2%

Q: And the viability, T/C (second compound 10 µM, first compound 0.1 µM)?
A: 91.6%

Q: And the viability, T/C (second compound 10 µM, first compound 0.316 µM)?
A: 94.5%

Q: And the viability, T/C (second compound 10 µM, first compound 1 µM)?
A: 91.2%

Q: And the viability, T/C (second compound 10 µM, first compound 3.16 µM)?
A: 76.1%

Q: And the viability, T/C (second compound 10 µM, first compound 10 µM)?
A: 50.8%

Q: And the viability, T/C (second compound 31.6 µM, first compound 0.0316 µM)?
A: 87.1%

Q: What about the viability, T/C (second compound 31.6 µM, first compound 0.1 µM) of the same molecule?
A: 84.8%

Q: And the viability, T/C (second compound 31.6 µM, first compound 0.316 µM)?
A: 87.5%

Q: What about the viability, T/C (second compound 31.6 µM, first compound 1 µM) of the same molecule?
A: 80.9%

Q: And the viability, T/C (second compound 31.6 µM, first compound 3.16 µM)?
A: 67.4%

Q: What about the viability, T/C (second compound 31.6 µM, first compound 10 µM) of the same molecule?
A: 41.2%

Q: And the viability, T/C (second compound 100 µM, first compound 0.0316 µM)?
A: 72.5%

Q: What about the viability, T/C (second compound 100 µM, first compound 0.1 µM) of the same molecule?
A: 69%

Q: And the viability, T/C (second compound 100 µM, first compound 0.316 µM)?
A: 74%

Q: And the viability, T/C (second compound 100 µM, first compound 1 µM)?
A: 76%

Q: And the viability, T/C (second compound 100 µM, first compound 3.16 µM)?
A: 56.9%

Q: And the viability, T/C (second compound 100 µM, first compound 10 µM)?
A: 40.1%
